# Experimental data as given in patent publication US20080167363A1, “Modulation of Neurogenesis By Melatoninergic Agents” (BrainCells, Inc, priority 2006, published 2008).
# Where “and” joins values, the source holds several entries; their conditions need not be identical. Equal values may be shown once.
# Legend:
# [1] = tested on: Group I or Group III receptors; details: at sub-mM concentrations; cited from earlier work
# mGluR3 = mGluR3 (Homo sapiens, UniProt Q14832); details: antagonist; cited from earlier work
# Chain of mGluR3 (Q14832 23-879): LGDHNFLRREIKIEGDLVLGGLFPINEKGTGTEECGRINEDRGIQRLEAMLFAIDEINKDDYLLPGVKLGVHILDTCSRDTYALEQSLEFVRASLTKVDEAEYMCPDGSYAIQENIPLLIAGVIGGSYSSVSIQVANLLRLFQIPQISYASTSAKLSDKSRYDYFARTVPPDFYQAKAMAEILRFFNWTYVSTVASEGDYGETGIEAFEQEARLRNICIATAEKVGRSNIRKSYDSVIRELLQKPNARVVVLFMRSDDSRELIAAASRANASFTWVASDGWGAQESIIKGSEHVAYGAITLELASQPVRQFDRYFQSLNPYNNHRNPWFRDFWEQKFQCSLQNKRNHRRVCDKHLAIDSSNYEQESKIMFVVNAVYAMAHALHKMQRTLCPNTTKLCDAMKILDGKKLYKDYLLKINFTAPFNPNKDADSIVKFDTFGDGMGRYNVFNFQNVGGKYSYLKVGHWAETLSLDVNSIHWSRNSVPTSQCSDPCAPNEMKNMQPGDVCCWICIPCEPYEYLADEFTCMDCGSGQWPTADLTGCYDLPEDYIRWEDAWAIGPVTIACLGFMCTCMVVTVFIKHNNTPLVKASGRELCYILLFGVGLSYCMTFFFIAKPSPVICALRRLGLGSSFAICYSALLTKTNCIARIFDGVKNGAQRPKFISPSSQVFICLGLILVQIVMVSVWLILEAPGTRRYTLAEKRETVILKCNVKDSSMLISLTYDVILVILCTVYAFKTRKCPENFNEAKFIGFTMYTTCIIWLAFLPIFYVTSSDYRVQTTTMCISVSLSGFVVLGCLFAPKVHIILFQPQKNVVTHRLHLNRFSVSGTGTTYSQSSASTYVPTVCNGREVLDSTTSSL
# mGluR2 = mGluR2 (Homo sapiens, UniProt Q14416); details: antagonist; cited from earlier work
# Chain of mGluR2 (Q14416 19-872): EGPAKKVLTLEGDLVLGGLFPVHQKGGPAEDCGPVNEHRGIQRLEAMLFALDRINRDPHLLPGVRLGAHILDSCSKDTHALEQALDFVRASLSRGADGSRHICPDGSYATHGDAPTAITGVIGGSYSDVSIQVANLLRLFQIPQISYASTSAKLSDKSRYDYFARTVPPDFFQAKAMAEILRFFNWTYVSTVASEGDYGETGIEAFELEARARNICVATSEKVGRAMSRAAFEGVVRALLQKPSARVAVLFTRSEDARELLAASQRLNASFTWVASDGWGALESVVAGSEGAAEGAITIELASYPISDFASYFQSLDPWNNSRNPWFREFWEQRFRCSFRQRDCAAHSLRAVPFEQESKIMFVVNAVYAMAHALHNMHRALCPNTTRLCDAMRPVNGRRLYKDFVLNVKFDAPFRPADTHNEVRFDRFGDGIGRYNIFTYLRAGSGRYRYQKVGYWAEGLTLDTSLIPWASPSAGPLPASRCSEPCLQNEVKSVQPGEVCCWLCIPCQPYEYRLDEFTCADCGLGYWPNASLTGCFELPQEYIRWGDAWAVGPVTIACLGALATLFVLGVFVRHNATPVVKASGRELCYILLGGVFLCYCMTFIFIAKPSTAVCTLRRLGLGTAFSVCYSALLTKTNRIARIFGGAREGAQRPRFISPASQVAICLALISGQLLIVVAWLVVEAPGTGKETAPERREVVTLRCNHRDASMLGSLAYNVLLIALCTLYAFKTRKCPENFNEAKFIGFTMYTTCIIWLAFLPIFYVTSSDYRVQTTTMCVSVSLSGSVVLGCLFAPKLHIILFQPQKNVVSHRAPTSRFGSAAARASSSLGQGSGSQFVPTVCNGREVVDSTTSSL
# [2] = tested on: Human neural stem cells (hNSCs); experiment: Neuronal differentiation of human neural stem cells (TUJ-1 staining); assay type: cell-based; details: for maximum neuronal differentiation percent of positive control: basal media values subtracted
# Excerpt: Human neural stem cells (hNSCs) were isolated and grown in monolayer culture, plated, treated with varying concentrations of the melatonin agonist ramelteon and stained with TUJ-1 antibody, as described in U.S. Provisional Application No. 60/697,905 (incorporated by reference). Mitogen-free test media with a positive control for neuronal differentiation was used along with basal media without growth factors as a negative control. […] Provisional Application No. 60/697,905 (incorporated by reference). Mitogen-free test media with a positive control for neuronal differentiation was used along with basal media without growth factors as a negative control. Human neural stem cells (hNSCs) were isolated and grown in monolayer culture, plated, treated with varying concentrations of captopril and/or melatonin (test compounds), and stained with TUJ-1 antibody, as described in U.S. Provisional Application No. 60/697,905 (incorporated by reference). Mitogen-free test media with a positive control for neuronal differentiation was used along with basal media without growth factors as a negative control. Human neural stem cells (hNSCs) were isolated and grown in monolayer culture, plated, treated with varying concentrations of serotonin (5-HT) and/or melatonin (test compounds), and stained with TUJ-1 antibody, as described in U.S. Provisional Application No. 60/697,905 (incorporated by reference). Mitogen-free test media with a positive control for neuronal differentiation was used along with basal media without growth factors as a negative control. Human neural stem cells (hNSCs) were isolated and grown in monolayer culture, plated, treated with varying concentrations of buspirone in the presence or absence of the melatonin agonist melatonin, and stained with TUJ-1 antibody, as described in U.S. Provisional Application No. 60/697,905 (incorporated by reference). Mitogen-free test media with a positive control for neuronal differentiation was used along with basal media without growth factors as a negative control. Human neural stem cells (hNSCs) were isolated and grown in monolayer culture, plated, treated with varying concentrations of buspirone in the presence or absence of the melatonin agonist ramelteon, and stained with TUJ-1 antibody, as described in U.S. Provisional Application No. 60/697,905 (incorporated by reference). Mitogen-free test media with a positive control for neuronal differentiation was used along with basal media without growth factors as a negative control. Human neural stem cells (hNSCs) were isolated and grown in monolayer culture, plated, treated with varying concentrations of the melatonin […] and stained with TUJ-1 antibody, as described in U.S. Provisional Application No. 60/697,905 (incorporated by reference). Mitogen-free test media with a positive control for neuronal differentiation was used along with basal media without growth factors as a negative control. Human neural stem cells (hNSCs) were isolated and grown in monolayer culture, plated, treated with varying concentrations of the melatonin […] and stained with TUJ-1 antibody, as described in U.S. Provisional Application No. 60/697,905 (incorporated by reference). Mitogen-free test media with a positive control for neuronal differentiation was used along with basal media without growth factors as a negative control. Human neural stem cells (hNSCs) were isolated and grown in monolayer culture, plated, treated with varying concentrations of the melatonin agonist agomelatine and stained with TUJ-1 antibody, as described in U.S. Provisional Application No. 60/697,905 (incorporated by reference). Mitogen-free test media with a positive control for neuronal differentiation was used along with basal media without growth factors as a negative control. The presence of synergy was determined by use of a combination index (CI). […]
# [3] = tested on: KA, AMPA, and NMDA iGlu receptors; details: cited from earlier work
# human mGlu3 receptors = human mGlu3 receptors (Homo sapiens, UniProt Q14832); details: agonist, in vitro; cited from earlier work
# Chain of human mGlu3 receptors (Q14832 23-879): as the sequence (Q14832 23-879) above
# human mGlu2 receptors = human mGlu2 receptors (Homo sapiens, UniProt Q14416); details: agonist, in vitro; cited from earlier work
# Chain of human mGlu2 receptors (Q14416 19-872): as the sequence (Q14416 19-872) above
# [4] = tested on: Human neural stem cells (hNSCs); experiment: Astrocyte differentiation of human neural stem cells (GFAP staining); assay type: cell-based; details: agent alone; for EC50: Homo sapiens, Neural stem cell, percent of astrocyte positive control, basal media subtracted
# Excerpt: Human neural stem cells (hNSCs) were isolated and grown in monolayer culture, plated, treated with varying concentrations of buspirone in the presence or absence of the melatonin agonist melatonin, and stained with an antibody for the detection of the astrocyte marker GFAP, as described in U.S. Provisional Application No. 60/697,905 (incorporated by reference). Mitogen-free test media with a positive control for astrocyte differentiation was used along with basal media without growth factors as a negative control. Human neural stem cells (hNSCs) were isolated and grown in monolayer culture, plated, treated with varying concentrations of buspirone in the presence or absence of the melatonin agonist ramelteon, and stained with an antibody for the detection of the astrocyte marker GFAP, as described in U.S. Provisional Application No. 60/697,905 (incorporated by reference). Mitogen-free test media with a positive control for astrocyte differentiation was used along with basal media without growth factors as a negative control.
# Male F344 rats [5] = experiment: In vivo neurogenesis (BrdU positive cells in dentate gyrus); parameters: species or system rat; details: 0.5 mg/kg buspirone and/or 3.0 mg/kg melatonin, i.p., 1x per day for 28 days; compared to vehicle
# Experimental: (§1) Male F344 rats were dosed 1× per day for 28-days with 0 (vehicle only), 0.5 mg/kg buspirone (n=12 per dose group, i.p.), 3.0 mg/kg melatonin (n=12 per dose group, ip) or the combination of the two drugs at the same doses. BrdU was administered once daily between days 9 and 14 (100 mg/kg/day, i.p., n=12 per dose group). […] Data are presented as percent change in BrdU positive cells per cubic mm dentate gyrus.
# as §1, with “For the in vivo neurogenesis assays, male” for “Male”
# Male F344 rats [6] = experiment: Novelty suppressed feeding assay (latency to eat); assay type: in vivo, rat; details: 0.5 mg/kg buspirone and/or 3.0 mg/kg melatonin, i.p., 1x per day for 21 days
# Experimental: Male F344 rats were dosed 1× per day for 21-days with 0 (vehicle only) 0.5 mg/kg buspirone (n=12 per dose group, i.p.) 3.0 mg/kg melatonin (n=12 per dose group, i.p.) or the combination of the two drugs at the same doses. […] Results shown in this figure indicate the mean latency to approach and eat a food pellet within the novel environment. Data are presented as latency to eat expressed as percent baseline.
# Male F344 rats were dosed 1× per day for 21-days with 0 (vehicle only), 0.5 mg/kg buspirone (n=12 per dose group, i.p.), 3.0 mg/kg melatonin (n=12 per dose group, i.p.), or the combination of the two drugs at the same doses. Twenty-four hours prior to behavioral testing, all food is removed from the home cage. At the time of testing a single pellet is placed in the center of a novel arena. Animals are placed in the corner of the arena and the latency (in time) to eat the pellet is recorded. […] Animals receive compound daily for 21 days and testing is performed on day 21. A decreased latency to eat the food pellet is indicative of both neurogenesis and antidepressant activity.
# [7] = Homo sapiens, Neural stem cell, agent alone, concentration response curve, percent of neuronal positive control, basal media subtracted, read-out: EC50, neuronal differentiation
structure (smiles),measurement,setting,value
"NC1(C(=O)O)CCc2cc(P(=O)(O)O)ccc21 (racemic) [APICA, (RS)-1-amino-5-phosphonoindan-1-carboxylic acid]",activity against Group I or Group III receptors,[1],no appreciable activity
same,IC50,mGluR3,~30 µM
same,IC50,mGluR2,~30 µM
CCC(=O)NC1Cc2ccccc2C(c2ccccc2)C1 (centres unmarked) [4-P-PDOT],maximum neuronal differentiation percent of positive control,[2]; agent alone,51%
same,EC50,"[2]; agent alone, extrapolated beyond highest tested concentration 31.6 μM, read-out: EC50, neuronal differentiation, estimated by extrapolation",33.7 µM
COc1ccc2cccc(CCNC(C)=O)c2c1 [Agomelatine],EC50,[2]; [7],8.7 µM
same,maximum neuronal differentiation percent of positive control,[2]; agent alone,42%
"COC(=O)Nc1ccc2[nH]cc(CCNC(C)=O)c2c1 [GR 135,531, 5-Methoxy-carbonylamino-N-acetyl-tryptamine]",EC50,"[2]; Homo sapiens, Neural stem cell, read-out: EC50, neuronal differentiation",0.24 µM
same,maximum neuronal differentiation percent of positive control,[2]; agent alone,59%
"N[C@](CC1c2ccccc2Oc2ccccc21)(C(=O)O)[C@H]1C[C@@H]1C(=O)O [LY341495, (2S)-2-amino-2-(1S,2S-2-carboxycycloprop-1-yl)-3-(xanth-9-yl) propanoic acid]","activity against KA, AMPA, and NMDA iGlu receptors",[3],substantially inactive
"N[C@@]1(C(=O)O)CO[C@H]2[C@H](C(=O)O)[C@H]21 [LY379268, (−)-2-Oxa-4-aminobicyclohexane-4,6-dicarboxylic acid]",EC50,human mGlu3 receptors,< 10 nM
same,EC50,human mGlu2 receptors,< 10 nM
CC(=O)NCCc1c(Cc2ccccc2)[nH]c2ccccc12 [Luzindole],EC50,[2]; [7],9.8 µM
same,maximum neuronal differentiation percent of positive control,[2]; agent alone,86%
CCC(=O)NCC[C@@H]1CCc2ccc3c(c21)CCO3 [Ramelteon],EC50,[2]; [7],8.1 µM
same,maximum neuronal differentiation percent of positive control,[2]; agent alone,45%
same,effect on astrogenesis,[4],no astrogenesis
O=C1CC2(CCCC2)CC(=O)N1CCCCN1CCN(c2ncccn2)CC1 [buspirone],BrdU positive cells per cubic mm dentate gyrus (percent change),Male F344 rats [5],did not significantly change
same,latency to eat the food pellet (percent baseline),Male F344 rats [6],did not significantly reduce
same,EC50,[2]; [7],4.7 µM
same,maximum neuronal differentiation percent of positive control,[2]; agent alone,62%
same,EC50,[4],5.7 µM
same,maximum astrocyte differentiation relative to positive control,[4],60% and 59%
C[C@H](CS)C(=O)N1CCC[C@H]1C(=O)O [captopril],EC50,[2]; [7],3.8 µM
COc1ccc2[nH]cc(CCNC(C)=O)c2c1 [melatonin],BrdU positive cells per cubic mm dentate gyrus (percent change),Male F344 rats [5],did not significantly change
same,latency to eat the food pellet (percent baseline),Male F344 rats [6],did not significantly reduce
same,EC50,[2]; [7],> 31.6 µM
same,EC50,"[2]; Homo sapiens, Neural stem cell, agent alone, extrapolated beyond highest tested concentration 31.6 μM, read-out: EC50, neuronal differentiation, estimated by extrapolation",~49.7 µM
same,EC50,[4],> 31.6 µM
same,effect on astrogenesis,[4],no astrogenesis
same,effect on astrogenesis,[4]; listed as Melatonin,no effect
"NCCc1c[nH]c2ccc(O)cc12 [serotonin, 5-hydroxytryptamine]",EC50,[2]; [7],7.4 µM
